Laboratory results published in patent US20150087673A1, “METHODS FOR USING AND BIOMARKERS FOR AMPK-ACTIVATING COMPOUNDS” (RIGEL PHARMACEUTICALS, INC., priority 2013, published 2015).

system: AMPK; assay: AMPK activation assay (enzyme-linked immunosorbent assay); type: cell-based
Procedure, shortened: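 Activation by each compound is measured using a conventional commercial immunoassay kit.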

Compound	EC50 [nM]
N#Cc1ccc(CN2CCC(NC(=O)c3ccc(N4CCC(C(=O)c5ccc(Cl)cc5)CC4)cn3)CC2)cc1 [Compound 266, 5-(4-(4-chlorobenzoyl)piperidin-1-yl)-N-(1-(4-cyanobenzyl)piperidin-4-yl)picolinamide]	< 500
N#Cc1ccc(CN2CCC(NC(=O)c3ccc(NC4CCN(c5ccc(C#N)cc5)CC4)cn3)CC2)cc1 [Compound 267, N-(1-(4-cyanobenzyl)piperidin-4-yl)-5-(1-(4-cyanophenyl)piperidin-4-ylamino)picolinamide]	< 500
N#Cc1ccc(CN2CCC(NC(=O)c3ccc(C(=O)N4CCC(Oc5ccncc5)CC4)cn3)CC2)cc1 [Compound 269, N-(1-(4-cyanobenzyl)piperidin-4-yl)-5-(4-(pyridin-4-yloxy)piperidine-1-carbonyl)picolinamide]	< 500
N#Cc1ccc(CN2CCC(NC(=O)c3ccc(C(=O)N4CC[C@H](Oc5ccc(F)cc5)C4)cn3)CC2)cc1 [Compound 270, (S)-N-(1-(4-cyanobenzyl)piperidin-4-yl)-5-(3-(4-fluorophenoxy)pyrrolidine-1-carbonyl)picolinamide]	< 500
N#Cc1ccc(CN2CCC(NC(=O)c3ccc(C(=O)N4CCC(C(=O)c5ccc(F)cc5F)CC4)cn3)CC2)cc1 [Compound 271, N-(1-(4-cyanobenzyl)piperidin-4-yl)-5-(4-(2,4-difluorobenzoyl)piperidine-1-carbonyl)picolinamide]	< 500
O=C(Nc1ccc(Oc2ccc(F)cc2)nc1)c1ccc(C(=O)N2CCC(C(=O)c3ccc(F)cc3)CC2)cn1 [Compound 272, 5-(4-(4-fluorobenzoyl)piperidine-1-carbonyl)-N-(6-(4-fluorophenoxy)pyridin-3-yl)picolinamide]	< 500
O=C(Nc1ccc(Oc2ccc(F)cc2)nc1)c1ccc(C(=O)N2CCC(Oc3ccc(F)cc3)CC2)cn1 [Compound 273, 5-(4-(4-fluorophenoxy)piperidine-1-carbonyl)-N-(6-(4-fluorophenoxy)pyridin-3-yl)picolinamide]	< 500
COc1ccc(OC2CCCN(C(=O)c3ccc(C(=O)NC4CCN(Cc5ccc(C#N)cc5)CC4)nc3)C2)cc1 (stereo not drawn) [Compound 274, N-(1-(4-cyanobenzyl)piperidin-4-yl)-5-(3-(4-methoxyphenoxy)piperidine-1-carbonyl)picolinamide]	> 10000
COc1ccc(N2CCC(Nc3ccc(C(=O)NC4CCN(Cc5ccc(C#N)cc5)CC4)nc3)CC2)cc1 [Compound 275, N-(1-(4-cyanobenzyl)piperidin-4-yl)-5-(1-(4-methoxyphenyl)piperidin-4-ylamino)picolinamide]	< 500
N#Cc1ccc(CN2CCC(NC(=O)c3ccc(NC4CCN(c5ccc(F)cc5)CC4)cn3)CC2)cc1 [Compound 276, N-(1-(4-cyanobenzyl)piperidin-4-yl)-5-(1-(4-fluorophenyl)piperidin-4-ylamino)picolinamide]	< 500
COc1cccc(OC2CCCN(C(=O)c3ccc(C(=O)NC4CCN(Cc5ccc(C#N)cc5)CC4)nc3)C2)c1 (stereo not drawn) [Compound 277, N-(1-(4-cyanobenzyl)piperidin-4-yl)-5-(3-(3-methoxyphenoxy)piperidine-1-carbonyl)picolinamide]	< 500
N#Cc1ccc(CN2CCC(NC(=O)c3ccc(C(=O)N4CC[C@@H](Oc5ccc(F)cc5)C4)cn3)CC2)cc1 [Compound 278, (R)-N-(1-(4-cyanobenzyl)piperidin-4-yl)-5-(3-(4-fluorophenoxy)pyrrolidine-1-carbonyl)picolinamide]	< 500
N#Cc1ccc(CN2CCC(NC(=O)c3ccc(C(=O)N4C5CCC4CC(Oc4ccc(C#N)cc4)C5)cn3)CC2)cc1 [Compound 280, N-(1-(4-cyanobenzyl)piperidin-4-yl)-5-((1R,3r,5S)-3-(4-cyanophenoxy)-8-azabicyclo[3.2.1]octane-8-carbonyl)picolinamide]	< 500
N#Cc1ccc(CN2CCC(NC(=O)c3ccc(C(=O)N4CCC(C(=O)c5ccc(F)c(F)c5)CC4)cn3)CC2)cc1 [Compound 281, N-(1-(4-cyanobenzyl)piperidin-4-yl)-5-(4-(3,4-difluorobenzoyl)piperidine-1-carbonyl)picolinamide]	< 500
N#Cc1ccc(CN2CCC(NC(=O)c3ccc(C(=O)N4CCC(Oc5ccc(F)cc5F)CC4)cn3)CC2)cc1 [Compound 282, N-(1-(4-cyanobenzyl)piperidin-4-yl)-5-(4-(2,4-difluorophenoxy)piperidine-1-carbonyl)picolinamide]	< 500
N#Cc1ccc(CN2CCC(NC(=O)c3ccc(C(=O)N4CCC(Oc5cccnc5)CC4)cn3)CC2)cc1 [Compound 283, N-(1-(4-cyanobenzyl)piperidin-4-yl)-5-(4-(pyridin-3-yloxy)piperidine-1-carbonyl)picolinamide]	< 500
CCOC(=O)c1ccc(OC2CCN(C(=O)c3ccc(C(=O)NC4CCN(Cc5ccc(C#N)cc5)CC4)nc3)CC2)cc1 [Compound 284, ethyl 4-(1-(6-(1-(4-cyanobenzyl)piperidin-4-ylcarbamoyl)nicotinoyl)piperidin-4-yloxy)benzoate]	< 500

Compound	EC50 [nM]
COc1ccc(CN2CCC(NC(=O)c3ccc(C(=O)N4CCN(Cc5ccc(C#N)cc5)CC4)cn3)CC2)cc1 [Compound 285, 5-(4-(4-cyanobenzyl)piperazine-1-carbonyl)-N-(1-(4-methoxybenzyl)piperidin-4-yl)picolinamide]	< 500
COc1cc(C#N)ccc1OC1CCN(c2ccc(C(=O)NC3CCN(Cc4ccc(C#N)cc4)CC3)nc2)CC1 [Compound 286, 5-(4-(4-cyano-2-methoxyphenoxy)piperidin-1-yl)-N-(1-(4-cyanobenzyl)piperidin-4-yl)picolinamide]	< 500
COc1ccc(C(=O)C2CCN(C(=O)c3ccc(C(=O)NC4CCN(Cc5cc(F)cc(F)c5)CC4)nc3)CC2)cc1 [Compound 287, N-(1-(3,5-difluorobenzyl)piperidin-4-yl)-5-(4-(4-methoxybenzoyl)piperidine-1-carbonyl)picolinamide]	< 500
O=C(NC1CCN(Cc2cc(F)cc(F)c2)CC1)c1ccc(C(=O)N2CCC(C(=O)c3ccc(F)cc3)CC2)cn1 [Compound 288, N-(1-(3,5-difluorobenzyl)piperidin-4-yl)-5-(4-(4-fluorobenzoyl)piperidine-1-carbonyl)picolinamide]	< 500
N#Cc1ccc(OC2CCN(C(=O)c3ccc(C(=O)NC4CCN(Cc5cc(F)cc(F)c5)CC4)nc3)CC2)cc1 [Compound 289, 5-(4-(4-cyanophenoxy)piperidine-1-carbonyl)-N-(1-(3,5-difluorobenzyl)piperidin-4-yl)picolinamide]	< 500
CC(C)(C)OC(=O)NCCCc1cc(C(=O)N2CCN(Cc3ccc(F)cc3)CC2)cnc1C(=O)NC1CCN(Cc2ccc(C#N)cc2)CC1 [Compound 290, tert-butyl 3-(2-(1-(4-cyanobenzyl)piperidin-4-ylcarbamoyl)-5-(4-(4-fluorobenzyl)piperazine-1-carbonyl)pyridin-3-yl)propylcarbamate]	< 500
N#Cc1ccc(CN2CCC(NC(=O)c3ncc(C(=O)N4CCN(Cc5ccc(F)cc5)CC4)cc3CCCNC(=O)CCOCCOCCOCCOCCNC(=O)CCCC[C@@H]3SC[C@@H]4NC(=O)N[C@@H]43)CC2)cc1 [Compound 291, N-(1-(4-cyanobenzyl)piperidin-4-yl)-3-(5,21-dioxo-25-((3aS,4S,6aR)-2-oxohexahydro-1H-thieno[3,4-d]imidazol-4-yl)-8,11,14,17-tetraoxa-4,20-diazapentacosyl)-5-(4-(4-fluorobenzyl)piperazine-1-carbonyl)picolinamide]	< 500
O=C(NC1CCN(Cc2cc(F)cc(F)c2)CC1)c1ccc(C(=O)N2CC[C@H](Oc3ccc(F)cc3)C2)cn1 [Compound 292, N-(1-(3,5-difluorobenzyl)piperidin-4-yl)-5-((S)-3-(4-fluorophenoxy)pyrrolidine-1-carbonyl)picolinamide]	< 500
Cc1ccc(OC2CCN(C(=O)c3ccc(C(=O)NC4CCN(Cc5cc(F)cc(F)c5)CC4)nc3)CC2)cc1 [Compound 293, N-(1-(3,5-difluorobenzyl)piperidin-4-yl)-5-(4-(p-tolyloxy)piperidine-1-carbonyl)picolinamide]	< 500
O=C(NC1CCN(Cc2cc(F)cc(F)c2)CC1)c1ccc(C(=O)N2CCC(Oc3ccc(C(F)(F)F)cc3)CC2)cn1 [Compound 294, N-(1-(3,5-difluorobenzyl)piperidin-4-yl)-5-(4-(4-(trifluoromethyl)phenoxy)piperidine-1-carbonyl)picolinamide]	< 500
O=C(NC1CCN(Cc2cc(F)cc(F)c2)CC1)c1ccc(C(=O)N2CCC(Oc3ccc(F)cc3)CC2)cn1 [Compound 295, N-(1-(3,5-difluorobenzyl)piperidin-4-yl)-5-(4-(4-fluorophenoxy)piperidine-1-carbonyl)picolinamide]	< 500
COc1ccc(OC2CCN(C(=O)c3ccc(C(=O)NC4CCN(Cc5cc(F)cc(F)c5)CC4)nc3)CC2)cc1 [Compound 296, N-(1-(3,5-difluorobenzyl)piperidin-4-yl)-5-(4-(4-methoxyphenoxy)piperidine-1-carbonyl)picolinamide]	< 500
O=C(NC1CCN(Cc2cc(F)cc(F)c2)CC1)c1ccc(C(=O)N2CCC(Oc3ccc(F)c(F)c3)CC2)cn1 [Compound 297, N-(1-(3,5-difluorobenzyl)piperidin-4-yl)-5-(4-(3,4-difluorophenoxy)piperidine-1-carbonyl)picolinamide]	< 500
O=C(NC1CCN(Cc2cc(F)cc(F)c2)CC1)c1ccc(C(=O)N2CCC(C(=O)c3ccc(F)c(F)c3)CC2)cn1 [Compound 298, 5-(4-(3,4-difluorobenzoyl)piperidine-1-carbonyl)-N-(1-(3,5-difluorobenzyl)piperidin-4-yl)picolinamide]	< 500
O=C(N[C@H]1CC[C@@H](Oc2cc(F)cc(F)c2)CC1)c1ccc(C(=O)N2CCC(Oc3ccc(F)cc3)CC2)cn1 [Compound 299, N-((cis)-4-(3,5-difluorophenoxy)cyclohexyl)-5-(4-(4-fluorophenoxy)piperidine-1-carbonyl)picolinamide]	< 500
COc1ccc(C(=O)C2CCN(C(=O)c3ccc(C(=O)N[C@H]4CC[C@@H](Oc5cc(F)cc(F)c5)CC4)nc3)CC2)cc1 [Compound 300, N-((cis)-4-(3,5-difluorophenoxy)cyclohexyl)-5-(4-(4-methoxybenzoyl)piperidine-1-carbonyl)picolinamide]	< 500
